Reference: ChEMBL document CHEMBL1201862, “PubChem BioAssay data set” (2004)
Blank lines part the entries; values can stand above or below the compound they belong to. Calls of active or inactive are those of the source.

Key:
[1] = biological target: Intestinal-type alkaline phosphatase (Homo sapiens, UniProt P09923); experiment: Dose Response confirmation of uHTS hits from a small molecule inhibitors of human intestinal alkaline phosphatase via a luminescent assay. [Related pubchem assays (depositor defined):AID2544, AID2574]; type: functional
[2] = NIH-3T3 fibroblast cytotoxicity, dose response, cytotoxicity control, cell-based, fluorescence, Alamar Blue, secondary assay (AID 2327); type: functional;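 further: NIH-3T3 mouse fibroblasts cultured with fluconazole at 8 µg/mL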
[3] = C. albicans growth with fluconazole, confirmation, fluorescence, retest (AID 2467); type: functional, cell-based
[4] = biological target: T1, X-box-binding protein 1 (Homo sapiens, UniProt P17861); type: functional, Cricetulus griseus;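 further: confirmatory dose-response counter-screen serving a CHOP assay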
T1 sequence (P17861 whole entry): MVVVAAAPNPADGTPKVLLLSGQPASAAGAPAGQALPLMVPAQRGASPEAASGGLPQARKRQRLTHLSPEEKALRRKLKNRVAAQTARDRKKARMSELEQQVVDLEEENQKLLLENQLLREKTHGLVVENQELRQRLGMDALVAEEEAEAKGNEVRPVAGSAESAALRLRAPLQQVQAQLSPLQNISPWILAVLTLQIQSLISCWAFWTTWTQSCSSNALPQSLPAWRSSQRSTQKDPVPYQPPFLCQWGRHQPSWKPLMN

[5] = cytotoxicity in HEK-293T cells, dose response, cytotoxicity control for TCR NF-kB inhibitor project, luminescence, T-cell screen hits (AID 489026); type: functional, cell-based;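 further: cells exposed to compound about 14 hours before the viability readout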
[6] = biological target: T2, Short transient receptor potential channel 4 (Mus musculus, UniProt Q9QUQ5); experiment: mouse TRPC4 channel inhibitors, dose response, cell-based, HEK293 TRPC4/mu-opioid, Fluo-4 calcium (AID 434942); type: functional;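 further: potency of inhibitors blocking the TRPC4 calcium response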
T2 sequence (Q9QUQ5 whole entry): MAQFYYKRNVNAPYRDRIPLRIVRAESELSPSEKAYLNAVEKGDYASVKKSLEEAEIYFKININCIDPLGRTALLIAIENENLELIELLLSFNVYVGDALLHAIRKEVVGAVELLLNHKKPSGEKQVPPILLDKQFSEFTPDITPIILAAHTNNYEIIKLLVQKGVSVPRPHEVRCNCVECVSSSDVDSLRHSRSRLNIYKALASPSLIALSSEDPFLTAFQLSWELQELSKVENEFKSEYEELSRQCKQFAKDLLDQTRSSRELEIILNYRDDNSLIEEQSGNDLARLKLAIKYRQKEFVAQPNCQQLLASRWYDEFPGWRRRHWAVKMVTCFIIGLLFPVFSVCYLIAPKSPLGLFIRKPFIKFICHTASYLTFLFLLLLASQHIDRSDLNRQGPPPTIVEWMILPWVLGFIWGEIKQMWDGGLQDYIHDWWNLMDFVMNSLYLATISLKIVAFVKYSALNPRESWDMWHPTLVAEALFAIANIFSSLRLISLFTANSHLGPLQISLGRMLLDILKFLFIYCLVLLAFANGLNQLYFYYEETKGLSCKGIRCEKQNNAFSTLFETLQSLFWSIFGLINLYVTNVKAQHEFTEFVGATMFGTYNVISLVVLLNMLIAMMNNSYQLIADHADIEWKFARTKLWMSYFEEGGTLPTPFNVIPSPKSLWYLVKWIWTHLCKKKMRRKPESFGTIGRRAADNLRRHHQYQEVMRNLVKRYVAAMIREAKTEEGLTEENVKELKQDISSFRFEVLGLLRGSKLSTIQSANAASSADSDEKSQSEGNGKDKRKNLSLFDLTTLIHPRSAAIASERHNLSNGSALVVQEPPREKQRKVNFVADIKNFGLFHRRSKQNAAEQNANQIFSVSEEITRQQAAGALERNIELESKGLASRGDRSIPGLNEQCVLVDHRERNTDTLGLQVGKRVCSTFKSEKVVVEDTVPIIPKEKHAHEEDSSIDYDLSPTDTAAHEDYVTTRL

[7] = biological target: T2, Short transient receptor potential channel 4; experiment: mouse TRPC4 channel activators, dose response, cell-based, HEK293 TRPC4/mu-opioid, Fluo-4 calcium (AID 434937); type: functional
[8] = biological target: T3, Aryl hydrocarbon receptor (Homo sapiens, UniProt P35869); experiment: Luminescence-based cell-based high throughput dose response assay for activators of the Aryl Hydrocarbon Receptor (AHR). [Related pubchem assays: 2796 (Primary screen (AHR activators in singlicate)), 2845 (Confirmation screen (AHR activators in triplicate)), 434939 (Counterscreen (PXR activators in triplicate)), 2804 (Summary (AHR activators))]; type: ADME
T3 sequence (P35869 whole entry): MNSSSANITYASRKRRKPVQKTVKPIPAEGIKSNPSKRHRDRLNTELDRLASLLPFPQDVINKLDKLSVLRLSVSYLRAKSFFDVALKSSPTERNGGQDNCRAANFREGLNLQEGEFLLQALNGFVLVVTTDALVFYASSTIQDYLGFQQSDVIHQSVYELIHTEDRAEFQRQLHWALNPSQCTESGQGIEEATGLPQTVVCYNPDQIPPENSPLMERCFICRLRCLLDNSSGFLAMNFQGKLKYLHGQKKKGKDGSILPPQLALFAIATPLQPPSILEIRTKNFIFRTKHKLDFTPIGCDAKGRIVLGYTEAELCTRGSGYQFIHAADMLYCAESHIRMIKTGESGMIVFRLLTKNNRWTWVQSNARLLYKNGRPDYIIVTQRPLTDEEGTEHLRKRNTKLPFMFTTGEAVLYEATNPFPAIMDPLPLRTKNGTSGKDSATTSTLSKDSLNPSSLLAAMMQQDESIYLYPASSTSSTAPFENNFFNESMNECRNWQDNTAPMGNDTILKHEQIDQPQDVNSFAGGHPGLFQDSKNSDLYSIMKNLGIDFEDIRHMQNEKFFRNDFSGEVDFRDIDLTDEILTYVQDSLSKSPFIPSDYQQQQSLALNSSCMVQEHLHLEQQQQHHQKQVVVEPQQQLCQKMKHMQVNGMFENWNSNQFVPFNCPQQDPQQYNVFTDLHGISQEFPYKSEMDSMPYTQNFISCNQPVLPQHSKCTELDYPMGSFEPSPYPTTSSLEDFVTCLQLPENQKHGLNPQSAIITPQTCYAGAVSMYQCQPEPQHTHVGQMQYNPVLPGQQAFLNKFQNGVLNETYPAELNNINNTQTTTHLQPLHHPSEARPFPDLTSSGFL

[9] = biological target: T4, CAAX prenyl protease 2 (Saccharomyces cerevisiae S288c, UniProt Q03530); type: biochemical
T4 sequence (Q03530 whole entry): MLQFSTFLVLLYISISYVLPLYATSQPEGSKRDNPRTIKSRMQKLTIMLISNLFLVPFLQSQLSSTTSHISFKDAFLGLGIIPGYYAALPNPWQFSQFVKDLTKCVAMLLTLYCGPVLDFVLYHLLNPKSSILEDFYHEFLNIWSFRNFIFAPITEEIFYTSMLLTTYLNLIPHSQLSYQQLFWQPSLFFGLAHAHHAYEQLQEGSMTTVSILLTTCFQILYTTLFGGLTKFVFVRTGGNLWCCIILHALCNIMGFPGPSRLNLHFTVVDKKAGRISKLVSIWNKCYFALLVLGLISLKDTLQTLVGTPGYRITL

[10] = Shn3 3'UTR reporter inhibitors, dose response, cell-based, Clone20 osteoblasts, firefly luciferase, cherry-picked (AID 624132); type: functional;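 further: firefly luciferase luminescence from reporter carrying the Shn3 3'UTR in osteoblasts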
[11] = HepG2 cell cytotoxicity, dose response, cytotoxicity control for Shn3 inhibitor project, CellTiter-Glo, cherry-picked (AID 624134); type: functional, cell-based
[12] = control 3'UTR Renilla luciferase suppression, dose response, counter-screen for Shn3 inhibitor project, cell-based, Clone20-Shn3RL, cherry-picked (AID 624133); type: functional
[13] = biological target: Luciferin 4-monooxygenase (Photinus pyralis, UniProt P08659); experiment: firefly luciferase enzyme inhibitors, dose response, biochemical, luminescence (AID 1891)
[14] = Luminescence Cell-Based Dose Confirmation HTS to Identify Inhibitors of Platelet Dense Granule Release. [Related pubchem assays: 1663 (Primary HTS), 1678 (Summary of Project)]; type: functional
[15] = biological target: T5, Microphthalmia-associated transcription factor (Homo sapiens, UniProt O75030); experiment: TRPM1 promoter luciferase signal decrease, dose response, MITF inhibitor project, cell-based, SK-MEL-5, cherry-picked, set 3 (AID 493073); type: functional
T5 sequence (O75030 whole entry): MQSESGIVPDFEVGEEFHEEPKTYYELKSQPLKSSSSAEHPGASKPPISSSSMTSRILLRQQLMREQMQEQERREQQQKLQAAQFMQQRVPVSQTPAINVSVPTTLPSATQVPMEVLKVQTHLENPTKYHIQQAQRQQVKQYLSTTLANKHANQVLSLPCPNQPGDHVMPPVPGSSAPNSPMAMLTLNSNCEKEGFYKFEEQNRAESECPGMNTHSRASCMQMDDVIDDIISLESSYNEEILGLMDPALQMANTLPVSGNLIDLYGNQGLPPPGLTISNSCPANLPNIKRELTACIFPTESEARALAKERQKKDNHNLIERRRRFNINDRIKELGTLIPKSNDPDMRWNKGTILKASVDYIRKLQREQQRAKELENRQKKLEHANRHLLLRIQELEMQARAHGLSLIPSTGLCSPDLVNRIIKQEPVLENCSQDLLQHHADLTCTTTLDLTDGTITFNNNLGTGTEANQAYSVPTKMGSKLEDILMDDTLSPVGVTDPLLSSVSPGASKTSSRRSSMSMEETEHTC

[16] = system: A-375; experiment: MITF: Counter assay: A375 proliferation Measured in Cell-Based System Using Plate Reader - 2084-03_Inhibitor_Dose_DryPowder_Activity. [Related pubchem assays (depositor defined):AID488944]; type: functional; conditions: Homo sapiens
[17] = system: Escherichia coli; experiment: microbe, parasite or virus in culture
[18] = cells; type: functional, cell-based
[19] = biological target: T6, Heat shock factor protein 1 (Mus musculus, UniProt P38532); experiment: inhibition of MG132-induced HSE-luciferase signal, confirmation, cell-based, NIH3T3, luminescence, dose retest (AID 2382); type: functional;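 further: NIH3T3 fibroblasts with HSF1-driven luciferase reporter stressed by proteasome inhibitor MG132; luminescence from HSF1-driven luciferase expression after 8 hours of MG132 stress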
T6 sequence (P38532 whole entry): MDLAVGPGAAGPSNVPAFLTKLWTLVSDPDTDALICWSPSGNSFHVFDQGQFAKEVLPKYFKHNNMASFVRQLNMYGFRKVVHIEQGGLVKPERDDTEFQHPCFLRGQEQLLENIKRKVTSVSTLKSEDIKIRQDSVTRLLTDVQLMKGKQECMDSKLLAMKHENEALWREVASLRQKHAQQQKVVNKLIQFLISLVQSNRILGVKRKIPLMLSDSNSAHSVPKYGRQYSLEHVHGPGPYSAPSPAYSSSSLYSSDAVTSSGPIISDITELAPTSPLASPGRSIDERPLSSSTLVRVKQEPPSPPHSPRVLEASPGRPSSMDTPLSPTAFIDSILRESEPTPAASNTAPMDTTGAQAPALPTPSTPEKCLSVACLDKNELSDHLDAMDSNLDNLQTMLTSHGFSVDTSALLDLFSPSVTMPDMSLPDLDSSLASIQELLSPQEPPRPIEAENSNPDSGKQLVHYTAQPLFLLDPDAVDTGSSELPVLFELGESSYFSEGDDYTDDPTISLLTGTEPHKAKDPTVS

[20] = cells; type: functional, cell-based; remark: listed apart in the source
[21] = biological target: Mitogen-activated protein kinase 10 (Homo sapiens, UniProt P53779); experiment: Dose response biochemical screening assay for inhibitors of c-Jun N-Terminal Kinase 3 (JNK3). [Related pubchem assays: 746 ]
Sequence of Mitogen-activated protein kinase 10 (P53779 whole entry): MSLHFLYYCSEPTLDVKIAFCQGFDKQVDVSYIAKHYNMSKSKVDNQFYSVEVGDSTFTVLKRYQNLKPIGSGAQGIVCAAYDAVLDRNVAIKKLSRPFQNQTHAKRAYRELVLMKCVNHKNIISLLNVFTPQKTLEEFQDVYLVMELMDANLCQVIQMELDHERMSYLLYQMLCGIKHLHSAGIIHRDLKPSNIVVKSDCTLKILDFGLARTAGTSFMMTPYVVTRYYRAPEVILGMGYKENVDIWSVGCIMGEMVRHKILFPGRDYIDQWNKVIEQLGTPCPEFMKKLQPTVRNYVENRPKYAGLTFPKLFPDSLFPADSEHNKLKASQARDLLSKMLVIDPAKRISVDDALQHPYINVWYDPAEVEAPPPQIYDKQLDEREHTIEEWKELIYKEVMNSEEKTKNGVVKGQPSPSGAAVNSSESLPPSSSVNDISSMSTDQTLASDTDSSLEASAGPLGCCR

Sequence of Intestinal-type alkaline phosphatase (P09923 whole entry): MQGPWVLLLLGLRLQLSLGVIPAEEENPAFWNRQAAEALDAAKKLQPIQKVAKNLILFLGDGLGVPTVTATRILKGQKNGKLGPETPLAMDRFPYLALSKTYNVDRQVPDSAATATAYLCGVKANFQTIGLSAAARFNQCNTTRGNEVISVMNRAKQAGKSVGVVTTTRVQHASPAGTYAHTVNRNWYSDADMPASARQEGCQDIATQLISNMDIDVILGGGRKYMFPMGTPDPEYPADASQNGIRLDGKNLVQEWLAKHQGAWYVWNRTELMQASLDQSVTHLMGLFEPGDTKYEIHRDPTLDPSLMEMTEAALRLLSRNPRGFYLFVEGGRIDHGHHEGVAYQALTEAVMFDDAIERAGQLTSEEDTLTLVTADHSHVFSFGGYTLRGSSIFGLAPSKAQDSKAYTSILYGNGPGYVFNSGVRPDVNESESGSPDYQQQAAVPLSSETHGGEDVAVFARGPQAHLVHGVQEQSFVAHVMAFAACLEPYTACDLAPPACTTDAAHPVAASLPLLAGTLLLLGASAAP
Sequence of Luciferin 4-monooxygenase (P08659 whole entry): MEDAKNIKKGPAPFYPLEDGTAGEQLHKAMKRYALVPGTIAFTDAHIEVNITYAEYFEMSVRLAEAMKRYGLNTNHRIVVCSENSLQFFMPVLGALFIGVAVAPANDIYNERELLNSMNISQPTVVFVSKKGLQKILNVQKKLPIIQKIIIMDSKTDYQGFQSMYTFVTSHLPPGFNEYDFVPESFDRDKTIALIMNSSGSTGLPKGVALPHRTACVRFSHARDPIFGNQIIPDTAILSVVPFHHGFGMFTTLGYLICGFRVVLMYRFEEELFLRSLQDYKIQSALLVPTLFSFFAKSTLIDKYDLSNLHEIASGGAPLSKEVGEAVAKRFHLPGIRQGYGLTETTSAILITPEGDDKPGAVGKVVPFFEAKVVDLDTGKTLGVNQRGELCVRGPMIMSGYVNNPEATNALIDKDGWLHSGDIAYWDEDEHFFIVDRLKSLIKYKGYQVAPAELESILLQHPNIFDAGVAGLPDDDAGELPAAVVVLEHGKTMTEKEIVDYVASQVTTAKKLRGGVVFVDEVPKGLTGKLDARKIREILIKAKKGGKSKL

SMILES: C=CCSc1nc(-c2ccc(OCCCC)cc2)n[nH]1
EC50 [2]: > 150 µM (inactive) | EC50 [3]: > 38 µM (not active) | Absolute IC50 (XBP1) [4]: < 10 µM

SMILES: O=C1CC(c2cc(F)ccc2F)c2cc3c(cc2N1)CCC3 (stereo unspecified)
IC50 [5]: > 80 µM (inactive)

SMILES: Cn1c(C(=O)N2CCC(C(N)=O)CC2)cc2cc(Cl)ccc21
EC50 [8]: 0.91 µM (active)

SMILES: Cc1ccc(NS(=O)(=O)c2ccc(C(=O)NC3CCN(Cc4ccccc4)CC3)cc2)cc1
IC50 [5]: 76.2 µM (inactive) | AC50 [10]: 4.69 µM (active) | AC50 [11]: 14.8 µM (active) | AC50 [12]: 12.9 µM (active)

SMILES: O=C(/C=C/Nc1ccccc1Br)c1ccccn1
EC50 [13]: 1.34 µM (active) | EC50 [14]: 4.02 µM (active) | AC50 [15]: 0.899 µM (active) | AC50 [16]: 27.6 µM (active) | AC50 [10]: 1.8 µM (active) | AC50 [11]: 47.7 µM (active) | AC50 [12]: 30.4 µM (active) | AC50 [17]: > 150 µM (inactive)

SMILES: CC(C)c1ccc(C2C3CSCC=C3C(C#N)=C(N)C2(C#N)C#N)cc1 (stereo unspecified)
Absolute IC50 (XBP1) [4]: 10 µM

SMILES: COC(=O)[C@]12OC[C@]34C([C@@H](O)[C@@H]1O)[C@]1(C)CC(=O)C(O)=C(C)[C@@H]1C[C@H]3OC(=O)[C@H](O)[C@@H]24 (stereo partly specified)
EC50 [18]: > 350 µM (not active) | EC50 [19]: 1.01 µM (active) | EC50 [20]: > 350 µM (not active) | IC50 [5]: > 80 µM (inactive)

SMILES: N#C/C(=C(\O)c1ccco1)c1ccccn1
IC50 [21]: 51.9 µM (not active) | IC50 [1]: > 100 µM (inactive)

Next, values leading:

IC50 [1]: > 100 µM (inactive)
SMILES: COc1ccc(NC(=O)CCN2CCN(S(=O)(=O)c3cc(Cl)ccc3OC)CC2)cc1

EC50 [6]: 3.35 µM (active) | EC50 [7]: 8.41 µM (active)
SMILES: Cc1cc(NCc2ccccc2)nc2ccccc12

EC50 [8]: 5.72 µM (active) | AC50 [9]: 5.02 µM (active)
SMILES: COc1ccc(-c2oc3ccc(N4CCOCC4)cc3c2C#Cc2ccc(N)cc2)cc1

EC50 [7]: 2.11 µM (active)
SMILES: Fc1ccc(NC(S)=NCCc2ccccn2)cc1

Absolute IC50 (XBP1) [4]: 10 µM
SMILES: CC(C)c1ccccc1NC(=O)Cn1c(/C=C/c2ccccc2)nc2ccccc21
